# According to patent US9670230B2, “Heteroaryl compounds and methods of use thereof” (SUNOVION PHARMACEUTICALS INC., priority 2012, dated 2017):
# Biological target: recombinant human PDE-10 enzyme (Homo sapiens (Human), UniProt Q9Y233)
# Experiment: Molecular Devices IMAP PDE Fluorescence Polarization assay, human PDE-10 inhibition (enzyme assay IC50)
# Assay type: biochemical
# Conditions: recombinant human PDE-10 expressed in baculoviral system; Fluorescein-labeled cAMP/cGMP substrate; 40-minute incubation at 37° C.
# Experimental: In one embodiment, the compounds provided herein were assayed for their ability to inhibit human PDE-10A. In one embodiment, the activities of the compounds were determined using the Molecular Devices IMAP PDE Fluorescence Polarization assay using recombinant human PDE-10 enzyme expressed in a baculoviral system. Briefly, 10 μL of a compound (0.2 nM-20 μM) was added to either a 96-well half area black plate or a 384-well black plate along with 10 μL of Fluorescein-labeled cAMP/cGMP substrate as per manufacturer's instructions and 10 μL of PDE enzyme (activity 0.1 U). Following a 40-minute incubation at 37° C., 60 μL of IMAP binding reagent was added. The plate was then read on a Perkin Elmer Victor (480-535 nm). The data was analyzed using Prism Software (GraphPad Inc, San Diego, Calif.).
# Sequence of recombinant human PDE-10 enzyme (Q9Y233 whole entry): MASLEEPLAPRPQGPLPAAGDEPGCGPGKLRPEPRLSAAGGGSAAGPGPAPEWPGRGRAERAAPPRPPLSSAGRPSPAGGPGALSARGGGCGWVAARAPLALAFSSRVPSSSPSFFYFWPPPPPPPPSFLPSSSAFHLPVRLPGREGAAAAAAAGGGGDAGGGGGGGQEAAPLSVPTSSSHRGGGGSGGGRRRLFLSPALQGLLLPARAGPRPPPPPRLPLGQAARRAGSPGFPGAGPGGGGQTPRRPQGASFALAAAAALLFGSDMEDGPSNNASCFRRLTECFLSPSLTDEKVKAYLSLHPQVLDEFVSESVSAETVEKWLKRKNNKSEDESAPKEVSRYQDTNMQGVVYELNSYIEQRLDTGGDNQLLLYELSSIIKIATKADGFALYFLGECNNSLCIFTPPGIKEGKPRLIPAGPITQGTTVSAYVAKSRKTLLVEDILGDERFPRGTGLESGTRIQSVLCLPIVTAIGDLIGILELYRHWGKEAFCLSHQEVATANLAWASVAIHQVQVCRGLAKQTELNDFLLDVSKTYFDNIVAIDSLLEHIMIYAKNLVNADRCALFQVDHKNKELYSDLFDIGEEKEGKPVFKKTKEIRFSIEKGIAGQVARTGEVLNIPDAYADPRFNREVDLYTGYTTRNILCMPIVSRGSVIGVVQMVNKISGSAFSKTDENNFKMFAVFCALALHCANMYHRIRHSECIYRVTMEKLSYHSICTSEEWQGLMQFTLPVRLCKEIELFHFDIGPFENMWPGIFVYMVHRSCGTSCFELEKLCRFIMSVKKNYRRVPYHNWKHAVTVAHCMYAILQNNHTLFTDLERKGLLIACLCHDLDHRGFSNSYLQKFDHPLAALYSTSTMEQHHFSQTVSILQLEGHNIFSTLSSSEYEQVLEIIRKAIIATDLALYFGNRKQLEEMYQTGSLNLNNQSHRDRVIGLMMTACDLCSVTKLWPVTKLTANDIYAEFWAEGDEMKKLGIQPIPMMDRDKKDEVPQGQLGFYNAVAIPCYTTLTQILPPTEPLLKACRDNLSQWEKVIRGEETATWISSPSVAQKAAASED
row,SMILES,IC50 [nM]
1,"Cc1ncc(C)n2nc(CCc3ccc4c(n3)N(C)C(C)CO4)nc12 (stereo not drawn) [Compound 10, 6-(2-(5,8-dimethyl-[1,2,4]triazolo[1,5-a]pyrazin-2-yl)ethyl)-3,4-dimethyl-3,4-dihydro-2H-pyrido[3,2-b][1,4]oxazine]",100 to 500
2,"Cc1ncc(C)n2nc(CCc3ccc4c(n3)NC(C)CC4)nc12 (stereo not drawn) [Compound 3, 7-(2-(5,8-dimethyl-[1,2,4]triazolo[1,5-a]pyrazin-2-yl)ethyl)-2-methyl-1,2,3,4-tetrahydro-1,8-naphthyridine]",10 to 100
3,"Cc1ccc2ccc(CCc3nc4c(C)ncc(C)n4n3)nc2c1 [Compound 1, 2-(2-(5,8-dimethyl-[1,2,4]triazolo[1,5-a]pyrazin-2-yl)ethyl)-7-methylquinoline]",≤ 10
4,"Cc1ncc(C)n2nc(CCc3ccc4c(n3)N[C@H](C)CC4)nc12 [Compound 4, (R)-7-(2-(5,8-dimethyl-[1,2,4]triazolo[1,5-a]pyrazin-2-yl)ethyl)-2-methyl-1,2,3,4-tetrahydro-1,8-naphthyridine]",10 to 100
5,"CCC1COc2ccc(CCc3nc4c(C)ncc(C)n4n3)nc2N1 (stereo not drawn) [Compound 9, 6-(2-(5,8-dimethyl-[1,2,4]triazolo[1,5-a]pyrazin-2-yl)ethyl)-3-ethyl-3,4-dihydro-2H-pyrido[3,2-b][1,4]oxazine]",10 to 100
6,"Cc1ncc(C)n2nc(CCc3ccc4c(n3)NC(C)CO4)nc12 (stereo not drawn) [Compound 6, 6-(2-(5,8-dimethyl-[1,2,4]triazolo[1,5-a]pyrazin-2-yl)ethyl)-3-methyl-3,4-dihydro-2H-pyrido[3,2-b][1,4]oxazine]",10 to 100
7,"CCC1COc2ccc(CCc3nc4c(C)ncc(C)n4n3)nc2N1C (stereo not drawn) [Compound 11, 6-(2-(5,8-dimethyl-[1,2,4]triazolo[1,5-a]pyrazin-2-yl)ethyl)-3-ethyl-4-methyl-3,4-dihydro-2H-pyrido[3,2-b][1,4]oxazine]",> 500
8,"Cc1ncc(C)n2nc(CCc3ccc4c(n3)N[C@H](C)CO4)nc12 [Compound 7, (R)-6-(2-(5,8-dimethyl-[1,2,4]triazolo[1,5-a]pyrazin-2-yl)ethyl)-3-methyl-3,4-dihydro-2H-pyrido[3,2-b][1,4]oxazine]",10 to 100
9,"Cc1ncc(C)n2nc(CCc3ccc4c(n3)N[C@@H](C)CO4)nc12 [Compound 8, (S)-6-(2-(5,8-dimethyl-[1,2,4]triazolo[1,5-a]pyrazin-2-yl)ethyl)-3-methyl-3,4-dihydro-2H-pyrido[3,2-b][1,4]oxazine]",100 to 500
10,"Cc1ncc(C)n2nc(CCc3ccc4c(n3)N[C@@H](C)CC4)nc12 [Compound 5, (S)-7-(2-(5,8-dimethyl-[1,2,4]triazolo[1,5-a]pyrazin-2-yl)ethyl)-2-methyl-1,2,3,4-tetrahydro-1,8-naphthyridine]",10 to 100
11,"Cc1ncc(C)n2nc(CCc3ccc4c(n3)NC(C)(C)CO4)nc12 [Compound 12, 6-(2-(5,8-dimethyl-[1,2,4]triazolo[1,5-a]pyrazin-2-yl)ethyl)-3,3-dimethyl-3,4-dihydro-2H-pyrido[3,2-b][1,4]oxazine]",100 to 500
12,"COc1ccc2ccc(CCc3nc4c(C)ncc(C)n4n3)nc2c1 [Compound 2, 2-(2-(5,8-dimethyl-[1,2,4]triazolo[1,5-a]pyrazin-2-yl)ethyl)-7-methoxyquinoline]",≤ 10
